How the values were obtained:
Test in all cases: Greenhouse herbicidal activity assay, post-emergence
Type in all cases: in vivo
Cyperus iria = settings: Post-emergence test, rate 150 g a.i./hm^2, grade by fresh weight inhibition rate
Text: (§1) Post-emergence: Seeds of gramineous weeds (Echinochloa crusgalli, Echinochloa crusgalli var. zelayensis, Echinochloa phyllopogon, Eleusine indica, Digitaria sanguinalis, Leptochloa chinensis, Setaria viridis, Alopecurus japonicus Steud, Beckmannia syzigachne, Polypogon fugax, Alopecurus aequalis, Lolium multiflorum, Poa annua, Aegilops tataschii, Avena fatua, Alopecurus myosuroides, Bromus japonicus), broadleaf weeds (Eclipta prostrata, Amaranthus retroflexus, Rorippa indica, Myosoton aquaticum, Veronica didyma, Galium aparine, Solanum nigrum, Xanthium sibiricum, Conyza canadensis, Sesbania cannabina, Sagittaria trifolia), and Cyperus iria (Cyperus iria, Scirpus juncoides, Cyperus difformis, etc.) were sown in plastic pots (7 cm diameter) with nutrient soil and bottom holes. Crop seeds (including Oryza sativa subsp. indica, Oryza sativa subsp. japonica, Oryza sativa L. var. Glutinosa matsum, Triticum aestivum, Zea mays, Sorghum bicolor, Setaria italica, Glycine max, Gossypium hirsutum, Brassica napus, Arachis hypogaea) were sown in plastic pots (10 cm diameter) with nutrient soil and bottom holes. After sowing, the pots were placed in the growth chamber until the plants reached the 3-6 leaf stage for foliar spraying. Post-treatment, the materials were air-dried naturally and returned to the growth chamber. Results were assessed 14-21 days later.
(§2) • A: Fresh weight inhibition rate≥80% to 100%; • B: Fresh weight inhibition rate[…] to <80%; • C: Fresh weight inhibition rate≥40% to <60%; • D: Fresh weight inhibition rate≥20% to <40%; • E: Fresh weight inhibition rate<20%; • NT: Not tested.

Echinochloa crusgalli = settings: Post-emergence test, rate 150 g a.i./hm^2; grade by fresh weight inhibition rate
Text: as §1, §2

Digitaria sanguinalis = settings: Post-emergence test, rate 150 g a.i./hm^2, grade by fresh weight inhibition rate
Text: as §1, §2

Leptochloa chinensis = settings: Post-emergence test, rate 150 g a.i./hm^2, grade by fresh weight inhibition rate
Text: as §1, §2

Eclipta prostrata = settings: Post-emergence test, rate 150 g a.i./hm^2, grade by fresh weight inhibition rate
Text: as §1, §2

| SMILES | Control efficacy grade, Cyperus iria (Cyperus iria) | Control efficacy grade, Echinochloa crusgalli (Echinochloa crusgalli) | Control efficacy grade, Digitaria sanguinalis (Digitaria sanguinalis) | Control efficacy grade, Leptochloa chinensis (Leptochloa chinensis) | Control efficacy grade, Eclipta prostrata (Eclipta prostrata) | pest or weed control at 150 g/ha (Cyperus iria; Cyperus iria, read-out: Control efficacy grade, Cyperus iria) | pest or weed control at 150 g/ha (Eclipta prostrata; Eclipta prostrata, read-out: Control efficacy grade, Eclipta prostrata) | pest or weed control at 150 g/ha (Digitaria sanguinalis; Digitaria sanguinalis, read-out: Control efficacy grade, Digitaria sanguinalis) | pest or weed control at 150 g/ha (Leptochloa chinensis; Dinebra chinensis, read-out: Control efficacy grade, Leptochloa chinensis) |
| --- | --- | --- | --- | --- | --- | --- | --- | --- | --- |
| Cc1nnc(NC(=O)c2ccc(S(C)(=O)=O)c([S+]([O-])CCCl)c2Cl)o1 (racemic) [Compound 3-213] | A (Fresh weight inhibition rate≥80% to 100%) | A (Fresh weight inhibition rate≥80% to 100%) | A (Fresh weight inhibition rate≥80% to 100%) | A (Fresh weight inhibition rate≥80% to 100%) | – | – | – | – | – |
| CCC(C)S(=O)(=O)c1c(S(C)(=O)=O)ccc(C(=O)Nc2nonc2C)c1Cl (racemic) [Compound 4-24] | A (Fresh weight inhibition rate≥80% to 100%) | – | A (Fresh weight inhibition rate≥80% to 100%) | A (Fresh weight inhibition rate≥80% to 100%) | A (Fresh weight inhibition rate≥80% to 100%) | – | – | – | – |
| Cc1nnc(NC(=O)c2ccc(S(C)(=O)=O)c(SC(C)(C)C)c2Cl)o1 [Compound 3-32] | A (Fresh weight inhibition rate≥80% to 100%) | A (Fresh weight inhibition rate≥80% to 100%) | B (Fresh weight inhibition rate≥260% to <80%) | A (Fresh weight inhibition rate≥80% to 100%) | – | – | – | – | – |
| C=C(C)CS(=O)(=O)c1c(S(C)(=O)=O)ccc(C(=O)Nc2nnc(C)o2)c1Cl [Compound 3-146] | A (Fresh weight inhibition rate≥80% to 100%) | – | B (Fresh weight inhibition rate≥260% to <80%) | A (Fresh weight inhibition rate≥80% to 100%) | A (Fresh weight inhibition rate≥80% to 100%) | – | – | – | – |
| Cc1nnc(NC(=O)c2ccc(S(C)(=O)=O)c(SCC(F)(F)C(F)(F)F)c2Cl)o1 [Compound 3-172] | A (Fresh weight inhibition rate≥80% to 100%) | – | A (Fresh weight inhibition rate≥80% to 100%) | A (Fresh weight inhibition rate≥80% to 100%) | A (Fresh weight inhibition rate≥80% to 100%) | – | – | – | – |
| Cc1nnc(NC(=O)c2ccc(S(C)(=O)=O)c(SC(C)C#N)c2Cl)o1 (stereo not drawn) [Compound 3-202] | B (Fresh weight inhibition rate≥260% to <80%) | A (Fresh weight inhibition rate≥80% to 100%) | B (Fresh weight inhibition rate≥260% to <80%) | A (Fresh weight inhibition rate≥80% to 100%) | – | – | – | – | – |
| CCc1nnc(NC(=O)c2ccc(S(C)(=O)=O)c(SCC(F)F)c2Cl)o1 [Compound 3-444] | – | A (Fresh weight inhibition rate≥80% to 100%) | B (Fresh weight inhibition rate≥260% to <80%) | A (Fresh weight inhibition rate≥80% to 100%) | – | – | – | – | – |
| C=CCSc1c(S(C)(=O)=O)ccc(C(=O)Nc2nnc(CC)o2)c1Cl [Compound 3-454] | A (Fresh weight inhibition rate≥80% to 100%) | A (Fresh weight inhibition rate≥80% to 100%) | A (Fresh weight inhibition rate≥80% to 100%) | A (Fresh weight inhibition rate≥80% to 100%) | – | – | – | – | – |
| CCCSc1c(S(C)(=O)=O)ccc(C(=O)Nc2nnc(C3CC3)o2)c1Cl [Compound 3-615] | A (Fresh weight inhibition rate≥80% to 100%) | – | A (Fresh weight inhibition rate≥80% to 100%) | A (Fresh weight inhibition rate≥80% to 100%) | A (Fresh weight inhibition rate≥80% to 100%) | – | – | – | – |
| CCCSc1c(S(C)(=O)=O)ccc(C(=O)Nc2nonc2C)c1Cl [Compound 4-1, 2-chloro-N-(4-methyl-1,2,5-oxadiazol-3-yl)-4-(methylsulfonyl)-3-(propylthio)benzamide] | – | – | – | – | – | 80 to 100% | 80 to 100% | 80 to 100% | 80 to 100% |
